C1CNCCNCCNCCN1
solubility (mole fraction)
Conditions	298.15 K	303.15 K	308.15 K	313.15 K	318.15 K	323.15 K
in isopropanol	0.00193	0.00202	0.00213	0.00224	0.0023	0.00249
in methanol	0.00266	0.00268	0.00305	0.00318	0.00321	0.00328

Reference: BigSolDB 2.1
